Laboratory results: US20230000813A1, “COMPOUND FOR THE TREATMENT OF BOVINE OR SWINE RESPIRATORY DISEASE” (Intervet Inc., priority 2016, published 2023)
Read-outs that look alike come from different tables or passages of the source.

How the values were obtained:
Format in all cases: cell-based
[1] = system: Pasteurella multocida PM 14426 (0006-439, BRD field isolate, macrolide-resistant); test: MIC, broth-microdilution (CLSI VET01-A4); conditions: strain PM 14426, macrolide-resistant
Description: (§1) The Minimum inhibitory concentrations (MIC) of compounds according to the invention were determined by the broth-microdilution method according to CLSI document VET01-A4.
(§2) Microdilution trays containing a doubling dilution series of the test compound were used for the tests.
(§3) The MIC results were interpreted according to the CLSI documents VET01-S3. The lowest concentration of compound at which no visible growth (i.e. no turbidity) detected by the unaided eye was recorded as the MIC.

[2] = system: Staphylococcus aureus SA 6114 (ATCC 29213, reference strain); test: MIC, broth-microdilution (CLSI VET01-A4); conditions: strain SA 6114
Description: as §1, §2, §3

[3] = system: Acinetobacter baumanii AB 15919 (IV369-2012, dermatitis field isolate); test: MIC, broth-microdilution (CLSI VET01-A4); conditions: strain AB 15919
Description: as §1, §2, §3

[4] = system: Acinetobacter baumanii AB 16496 (ATCC 19606, reference strain); test: MIC, broth-microdilution (CLSI VET01-A4); conditions: strain AB 16496
Description: as §1, §2, §3

[5] = system: Staphylococcus aureus SA 5816 (2139, mastitis field isolate); test: MIC, broth-microdilution (CLSI VET01-A4); conditions: strain SA 5816
Description: as §1, §2, §3

[6] = system: Mannheimia haemolytica MH 12180 (KLI-02944, BRD field isolate); test: MIC, broth-microdilution (CLSI VET01-A4); conditions: strain MH 12180
Description: as §1, §2, §3

[7] = system: Pasteurella multocida PM 12080 (IV102277-0093, BRD field isolate); test: MIC, broth-microdilution (CLSI VET01-A4)
Summary of the method: (§4)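 MIC values follow CLSI VET01-S3 interpretation, scored as the lowest concentration free of visible turbidity within a doubling dilution series in microdilution trays.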

[8] = system: Pasteurella multocida PM 6391 (ATCC 43137, reference strain); test: MIC, broth-microdilution (CLSI VET01-A4)
Summary of the method: as §4

[9] = system: Mannheimia haemolytica MH 12587 (1071, BRD field isolate, macrolide-resistance: erm+, E+); test: MIC, broth-microdilution (CLSI VET01-A4); conditions: Mannheimia haemolytica MH 12587, macrolide-resistant
Summary of the method: as §4

[10] = system: Pasteurella multocida PM 10775 (080130003051, BRD field isolate); test: MIC, broth-microdilution (CLSI VET01-A4); conditions: strain PM 10775
Summary of the method: as §4

[11] = system: Mannheimia haemolytica MH 6357 (M7/2, reference strain, cattle infection strain); test: MIC, broth-microdilution (CLSI VET01-A4)
Summary of the method: as §4

[12] = system: Mannheimia haemolytica MH 6374 (ATCC 33396, reference strain); test: MIC, broth-microdilution (CLSI VET01-A4)
Summary of the method: as §4

[13] = system: Pasteurella multocida PM 6267 (P 2225 (L386), reference strain, mouse infection strain); test: MIC, broth-microdilution (CLSI VET01-A4)
Summary of the method: as §4

[14] = system: Mannheimia haemolytica MH 10720 (154, BRD field isolate); test: MIC, broth-microdilution (CLSI VET01-A4); conditions: strain MH 10720
Summary of the method: as §4

[15] = system: 20 isolates of Histophilus (H.) somni; test: MIC50/MIC90, broth-microdilution, European respiratory tract isolates
Description: (§5) The in vitro activity of compounds against 20 isolates of Actinobacillus (A.) pleuropneumoniae, 20 of Bordetella (B.) bronchiseptica, 20 of Histophilus (H.) somni, 40 of Mannheimia (M.) haemolytica and 40 of Pasteurella (P.) multocida collected in different European countries were determined. All bacteria were isolated from the respiratory tract of swine and cattle suffering from respiratory disease. All isolates were epidemiologically unrelated as specified by the different suppliers.
(§6) The minimum inhibitory concentrations (MIC) of compounds according to the invention were determined by the broth-microdilution method according to CLSI document VET01-A4.
(§7) Microdilution trays containing a doubling dilution series of the test compounds were used for the tests.
as §3

[16] = system: 40 isolates of Mannheimia (M.) haemolytica; test: as above
Description: as §5, §6, §7, §3

[17] = system: 40 isolates of Pasteurella (P.) multocida; test: as above
Description: as §5, §6, §7, §3

[18] = system: 20 isolates of Bordetella (B.) bronchiseptica; test: as above
Description: as §5, §6, §7, §3

[19] = system: 20 isolates of Actinobacillus (A.) pleuropneumoniae; test: as above
Description: as §5, §6, §7, §3

[20] = system: 15 isolates of H. parasuis; test: MIC50/MIC90, agar-dilution method (GC agar base); conditions: Haemophilus parasuis
Description: The in vitro activity of 3 representative compounds of this invention against 15 isolates of H. parasuis was determined. All strains were isolated from the respiratory tract of swine in different European countries The MICs for all isolates were determined by using the agar-dilution method according to CLSI document VET01-A4 [1]with the following modification: GC agar base was used instead of Mueller-Hinton agar base for the preparation of the agar-dilution plates. Results were interpreted according to the CLSI document VET01-S3.

[21] = system: Mannheimia haemolytica MH 13093 (XB0472-6014.1, BRD field isolate); test: MIC, broth-microdilution (CLSI VET01-A4)
Summary of the method: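 Broth microdilution per CLSI VET01-A4 using doubling dilution series of compound. MIC taken as the lowest concentration with no turbidity visible to the unaided eye, interpreted per CLSI VET01-S3.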

C[C@@H](O)[C@H](NC(=O)c1ccc(C#Cc2ccc(CNCC(F)(F)F)cc2)cc1)C(=O)NO [C. 467]
0.25 µg/mL: MIC90 [20]
2 µg/mL: MIC50 [18] | MIC90 [18]
0.032 µg/mL: MIC [6] | MIC ([8]; strain PM 6391) | MIC ([13]; strain PM 6267) | MIC50 [16] | MIC50 [19]
0.2 µM: MIC ([12]; Mannheimia haemolytica MH 6374, read-out: MIC MH 6374)
0.125 µg/mL: MIC ([11]; strain MH 6357) | MIC50 [20]
0.063 µg/mL: MIC ([12]; strain MH 6374) | MIC90 [16] | MIC90 [19]
0.4 µM: MIC MH 12587 [9] | MIC [21]
>16 µg/mL: MIC [2] | MIC [3] | MIC [4] | MIC [5]
≤0.016 µg/mL: MIC [1] | MIC ([7]; strain PM 12080) | MIC [10] | MIC [14] | MIC50 [15] | MIC90 [15] | MIC50 [17] | MIC90 [17]
<=0.1 μM: MIC PM 12080 ([7]; Pasteurella multocida PM 12080) | MIC PM 6391 ([8]; Pasteurella multocida PM 6391) | MIC MH 6357 ([11]; Mannheimia haemolytica MH 6357) | MIC PM 6267 ([13]; Pasteurella multocida PM 6267)
